Series [1] relates to CWR22R. As to the kind of experiment: Antitumor activity against human 22Rv1 cells xenografted in CD-1 Foxn1 nude mouse assessed as tumor stasis at 32 umol/kg, ip once in every two weeks after 100 to 120 days. It counts as functional, organism-based.
Series [2] has as its system CWR22R. As to the kind of experiment: Antitumor activity against human 22Rv1 cells xenografted in CD-1 Foxn1 nude mouse assessed as median tumor growth delay time at 32 umol/kg, ip once in every two weeks after 100 to 120 days. It counts as functional. In general terms: In xenograft studies the graft and the host belong to different species.
In series [3] the test system is Mus musculus. As to the kind of experiment: Toxicity in CD-1 Foxn1 nude mouse xenografted with human 22Rv1 cells assessed as change in body weight at 32 umol/kg, ip once in every two weeks after 100 to 120 days. The note with it: in vivo. It counts as organism-based.
The test system of series [4] is Mus musculus. The series is described as follows: Toxicity in CD-1 Foxn1 nude mouse xenografted with human SiHa cells assessed as death at 75 umol/kg, iv. The note with it: in vivo.
Series [5] deals with Mus musculus. As to the kind of experiment: Toxicity in CD-1 Foxn1 nude mouse xenografted with human H460 cells assessed as death at 75 umol/kg, iv. To be noted: in vivo.
Series [6] deals with Mus musculus. The series is described as follows: Toxicity in CD-1 Foxn1 nude mouse xenografted with human SiHa cells assessed as sporadic acute toxicity at 42 to 56 umol/kg, iv. To be noted: in vivo.
For series [7], the system named is SiHa. As to the kind of experiment: Antitumor activity against human SiHa cells xenografted in CD-1 Foxn1 nude mouse assessed as tumor regression at 42 to 56 umol/kg, iv after more than 100 days in presence of gemcitabine. It counts as functional, organism-based.
Series [8] concerns A2780. As to the kind of experiment: Antitumor activity against human A2780 cells xenografted in CD-1 Foxn1 nude mouse assessed as tumor regression at 42 to 56 umol/kg, iv after 100 days in presence of gemcitabine. It counts as functional, organism-based.
Series [9] concerns CWR22R. As to the kind of experiment: Antitumor activity against human 22Rv1 cells xenografted in CD-1 Foxn1 nude mouse assessed as reduction in colony forming cells under hypoxic condition at 30 umol/kg, iv treated 5 mins after gamma irradiation measured after 18 hrs by excision assay. It counts as functional, organism-based.
Series [10] concerns SiHa. As to the kind of experiment: Antitumor activity against human SiHa cells xenografted in CD-1 Foxn1 nude mouse assessed as tumor regression at 42 to 56 umol/kg, iv after more than 100 days. It counts as functional, organism-based.
The test system of series [11] is Mus musculus. As to the kind of experiment: Toxicity in CD-1 Foxn1 nude mouse xenografted with human SiHa cells assessed as body weight change at 42 to 56 umol/kg, iv after 100 to 120 days in presence of gemcitabine. It counts as organism-based. The note with it: in vivo.
The test system of series [12] is SiHa. As to the kind of experiment: Antitumor activity against human SiHa cells xenografted in CD-1 Foxn1 nude mouse assessed as log reduction in colony forming cells under hypoxic condition at 42 umol/kg, iv treated 5 mins after gamma irradiation measured after 18 hrs by excision assay. It counts as functional.
Series [13] deals with HCT-116. As to the kind of experiment: Antitumor activity against human HCT116 cells xenografted in CD-1 Foxn1 nude mouse assessed as reduction in colony forming cells at 56 umol/kg, iv treated 5 mins after gamma irradiation measured after 18 hrs by excision assay. It counts as functional, organism-based.
Series [14] has as its system A2780. As to the kind of experiment: Antitumor activity against human A2780 cells xenografted in CD-1 Foxn1 nude mouse assessed as tumor regression at 42 to 56 umol/kg, iv after 8 to 23 days in presence of gemcitabine. It counts as functional, organism-based.
For series [15], the system named is NCI-H460. As to the kind of experiment: Antitumor activity against human H460 cells xenografted in CD-1 Foxn1 nude mouse assessed as reduction in colony forming cells under hypoxic condition at 75 umol/kg, iv treated 5 mins after gamma irradiation measured after 18 hrs by excision assay. It counts as functional, organism-based.
In series [16] the test system is NCI-H1299. The series is described as follows: Antitumor activity against human H1299 cells xenografted in CD-1 Foxn1 nude mouse assessed as reduction in colony forming cells at 75 umol/kg, iv treated 5 mins after gamma irradiation measured after 18 hrs by excision assay. It counts as functional, organism-based.
The subject of series [17] is A2780. The series is described as follows: Antitumor activity against human A2780 cells xenografted in CD-1 Foxn1 nude mouse assessed as tumor regression at 42 to 56 umol/kg, iv after 100 days. It counts as functional, organism-based.
Series [18] deals with SiHa. As to the kind of experiment: Antitumor activity against human SiHa cells xenografted in CD-1 Foxn1 nude mouse assessed as reduction in colony forming cells under hypoxic condition at 23.7 umol/kg, iv treated 5 mins after gamma irradiation measured after 18 hrs by excision assay. It counts as functional, organism-based.
Series [19] deals with NCI-H460. The series is described as follows: Antitumor activity against human H460 cells xenografted in CD-1 Foxn1 nude mouse assessed as reduction in colony forming cells under hypoxic condition at 23.7 umol/kg, iv treated 5 mins after gamma irradiation measured after 18 hrs by excision assay. It counts as functional, organism-based.
Series [20] deals with NCI-H460. The series is described as follows: Antitumor activity against human H460 cells xenografted in CD-1 Foxn1 nude mouse assessed as log reduction in colony forming cells under hypoxic condition at 56 umol/kg, iv treated 5 mins after gamma irradiation measured after 18 hrs by excision assay. It counts as functional.
Series [21] has as its system Mus musculus. The series is described as follows: Toxicity in CD-1 Foxn1 nude mouse xenografted with human H460 cells assessed as death at 13 umol/kg, iv. The note with it: in vivo.
Series [22] relates to Mus musculus. The series is described as follows: Toxicity in CD-1 Foxn1 nude mouse xenografted with human SiHa cells assessed as death at 13 umol/kg, iv. The note with it: in vivo.
In series [23] the test system is SiHa. As to the kind of experiment: Antitumor activity against human SiHa cells xenografted in CD-1 Foxn1 nude mouse assessed as tumor regrowth at 237 umol/kg, ip four times for every three days after 100 to 120 days. It counts as functional, organism-based.
Series [24] relates to Mus musculus. As to the kind of experiment: Toxicity in CD-1 Foxn1 nude mouse xenografted with human SiHa cells assessed as lose in body weight at 133 umol/kg, ip four times for every three days after 100 to 120 days. It counts as organism-based. To be noted: in vivo.
For series [25], the system named is A2780. The series is described as follows: Antitumor activity against human A2780 cells xenografted in CD-1 Foxn1 nude mouse assessed as tumor regression at 133 umol/kg, ip four times for every three days after 100 to 120 days. It counts as functional, organism-based.
In series [26] the test system is A2780. As to the kind of experiment: Antitumor activity against human A2780 cells xenografted in CD-1 Foxn1 nude mouse assessed as delay in tumor growth at 100 umol/kg, ip four times for every three days after 100 to 120 days. It counts as functional, organism-based.
The subject of series [27] is A2780. The series is described as follows: Antitumor activity against human A2780 cells xenografted in CD-1 Foxn1 nude mouse assessed as tumor regrowth at 15 umol/kg, iv after 100 to 120 days. It counts as functional, organism-based.
Series [28] concerns Mus musculus. As to the kind of experiment: Toxicity in CD-1 Foxn1 nude mouse xenografted with human 22Rv1 cells at 14 umol/kg, ip. To be noted: in vivo.
Series [29] deals with CWR22R. As to the kind of experiment: Antitumor activity against human 22Rv1 cells xenografted in CD-1 Foxn1 nude mouse assessed as tumor regrowth at 14 umol/kg, iv after 100 to 120 days. It counts as functional, organism-based.
The subject of series [30] is CWR22R. As to the kind of experiment: Antitumor activity against human 22Rv1 cells xenografted in CD-1 Foxn1 nude mouse assessed as median tumor growth delay time at 15 umol/kg, iv after 100 to 120 days in presence of docetaxel. It counts as functional.
The subject of series [31] is A2780. The series is described as follows: Antitumor activity against human A2780 cells xenografted in CD-1 Foxn1 nude mouse assessed as median tumor growth delay time at 15 umol/kg, iv after 100 to 120 days in presence of gemcitabine. It counts as functional.
In series [32] the test system is CWR22R. As to the kind of experiment: Antitumor activity against human 22Rv1 cells xenografted in CD-1 Foxn1 nude mouse assessed as tumor regression at 14 umol/kg, iv after 100 to 120 days in presence of docetaxel. It counts as functional, organism-based.
Series [33] deals with Mus musculus. As to the kind of experiment: Toxicity in CD-1 Foxn1 nude mouse xenografted with human A2780 cells at 15 umol/kg, iv after 100 to 120 days in presence of gemcitabine. It counts as organism-based. To be noted: in vivo.
The subject of series [34] is Mus musculus. The series is described as follows: Toxicity in CD-1 Foxn1 nude mouse xenografted with human A2780 cells assessed as change in body weight at 15 umol/kg, iv after 100 to 120 days in presence of gemcitabine. It counts as organism-based. To be noted: in vivo.
The test system of series [35] is Mus musculus. As to the kind of experiment: Toxicity in CD-1 Foxn1 nude mouse xenografted with human 22Rv1 cells assessed as change in body weight at 14 umol/kg, ip. The note with it: in vivo.

Structures are written as SMILES. Calls of active or inactive are those of the source. No cut-off for these calls is given here.

With `CC(=O)O[C@@]12CO[C@@H]1C[C@H](O)[C@@]1(C)C(=O)[C@H](O)C3=C(C)[C@@H](OC(=O)[C@H](O)[C@@H](NC(=O)OC(C)(C)C)c4ccccc4)C[C@@](O)([C@@H](OC(=O)c4ccccc4)[C@H]21)C3(C)C` [DOCETAXEL ANHYDROUS], the outcome in series [1] was inactive. Also, the Time in [2] was 13 days. Moreover, the Activity result in [3] is reported as “Toxic”.

As to `CN(C)CC(=O)Nc1ccc2[nH]c(C(=O)N3CC(CCl)c4c3cc([N+](=O)[O-])c3cc(S(=O)(=O)NCCOP(=O)(O)O)ccc43)cc2c1` (configuration not stated), the Activity entry in series [4] and in series [5] was “Non-Toxic” throughout.

Turning to `CN(C)CCOc1ccc2[nH]c(C(=O)N3CC(CCl)c4c3cc([N+](=O)[O-])c3cc(S(=O)(=O)NCCOP(=O)(O)O)ccc43)cc2c1` (configuration not stated), the values for the Activity entry in [6] and in series [11] were “Toxic” and “Non-Toxic”, respectively. For the same molecule, the outcome in [7], in [8], in series [9], in [10], in [12] and in [13] was Active. Moreover, the result in [14], in series [15] and in series [16] was Active. For the same molecule, the outcome in series [17] was inactive.

Consider `CCN(CC)CCOc1ccc2[nH]c(C(=O)N3CC(CCl)c4c3cc([N+](=O)[O-])c3cc(S(=O)(=O)NCCOP(=O)(O)O)ccc43)cc2c1` (configuration not stated), for which, in series [18], the result was Active. In series [19], the result was inactive.

As for `O=C(/C=C/c1ccc(OCCN2CCOCC2)cc1)N1CC(CCl)c2c1cc([N+](=O)[O-])c1cc(S(=O)(=O)NCCOP(=O)(O)O)ccc21` (configuration not stated), the outcome in series [12] and in series [15] was Active. In [20], the Activity is more than 1.

On to `CN(C)CCC(=O)Nc1ccc2[nH]c(C(=O)N3CC(CCl)c4c3cc([N+](=O)[O-])c3cc(S(=O)(=O)NCCOP(=O)(O)O)ccc43)cc2c1` (configuration not stated), for which the Activity result in series [21] and in series [22] was “Toxic” each time.

Consider `Nc1ccn([C@@H]2O[C@H](CO)[C@@H](O)C2(F)F)c(=O)n1` [GEMCITABINE], for which the outcome in series [23], in series [25] and in series [26] was Active. The Activity in [24] turned out to be 5%.

In the case of `Nc1cc2c(c3ccc(S(=O)(=O)NCCOP(=O)(O)O)cc13)C(CCl)CN2C(=O)c1cc2cc(OCCN3CCOCC3)ccc2[nH]1` (configuration not stated), the result in series [27] and in series [29] was inactive. The Activity result in [28] is given as “Non-Toxic”; in series [12], more than 1; in [33] it was “Non-Toxic”; in series [34], “Non-Toxic”; in [35], “Non-Toxic”. Moreover, the result in series [9], in series [13], in series [32], in series [15] and in series [16] was Active. Moreover, the Time in series [30] turned out to be 17 days; in [31], 14 days.

The values above are taken from ChEMBL document CHEMBL4038307, “Influence of a Basic Side Chain on the Properties of Hypoxia-Selective Nitro Analogues of the Duocarmycins: Demonstration of Substantial Anticancer Activity in Combination with Irradiation or Chemotherapy” (J Med Chem, 2017).
